# Laboratory results published in paper PMC11859031, “Assessment of the In Vitro Biological Activities of Schiff Base-Synthesized Copper Oxide Nanoparticles as an Anti-Diabetic, Anti-Alzheimer, and Anti-Cancer Agent” (Pharmaceutics, 2025).
# Legend:
# α-glucosidase = α-glucosidase (Saccharomyces cerevisiae, UniProt P53341); assay type: biochemical
# Method: (§1) The absorbance was measured at 540 nm using a UV-Visible spectrophotometer. The IC50 of each tested sample was calculated by plotting a curve using a series of sample concentrations against the percent of α-amylase inhibition.
# (§2) The inhibition percentage (%) of the α-glucosidase enzyme was determined using the […]
# (§3) standard drug. Five μL of the α-glucosidase solution (10 units mL−1, 0.1moll−1 potassium phosphate buffer, pH 6.8) was pre -mixed with 10 μL of the sample solution at different concentrations (in 10% DMSO) i n 620 μL of 0.1 moll−1 potassium […]
# (§4) phosphate buffer (pH 6.8). […]
# (§5) phenyl glucopyranoside (pNPG, 10 mmoll−1) as a substrate was added to the mixture […]
# (§6) minutes, followed by the addition of 650 μL of 1 moll−1 Na2CO3 solution to terminate the reaction. The amount of released product (p-nitro phenol) was measured at 410 […]
# activity. The inhibition assay was performed in triplicate for all tests. The IC50 of each tested sample was calculated by plotting a curve using a series of sample concentrations against the percent of α-glucosidase inhibition.
# 3.4. Anti-Alzheimer's activity
# (§7) In this study, we assessed the inhibition percentage of the acetylcholinesterase (AChE) enzyme using Ellman's method with donepezil as the standard drug. […] After incubation, 5 µL of AChE at a concentration of 0.3 U/mL was added to start the reaction, and the absorbance […]
# α-amylase = molecular target: T1, α-amylase (Sus scrofa, UniProt P00690); test: α-amylase inhibition (anti-diabetic); assay type: biochemical; details: at 100 µg/mL; mean ± SE, n = 3
# T1 sequence (P00690 16-511): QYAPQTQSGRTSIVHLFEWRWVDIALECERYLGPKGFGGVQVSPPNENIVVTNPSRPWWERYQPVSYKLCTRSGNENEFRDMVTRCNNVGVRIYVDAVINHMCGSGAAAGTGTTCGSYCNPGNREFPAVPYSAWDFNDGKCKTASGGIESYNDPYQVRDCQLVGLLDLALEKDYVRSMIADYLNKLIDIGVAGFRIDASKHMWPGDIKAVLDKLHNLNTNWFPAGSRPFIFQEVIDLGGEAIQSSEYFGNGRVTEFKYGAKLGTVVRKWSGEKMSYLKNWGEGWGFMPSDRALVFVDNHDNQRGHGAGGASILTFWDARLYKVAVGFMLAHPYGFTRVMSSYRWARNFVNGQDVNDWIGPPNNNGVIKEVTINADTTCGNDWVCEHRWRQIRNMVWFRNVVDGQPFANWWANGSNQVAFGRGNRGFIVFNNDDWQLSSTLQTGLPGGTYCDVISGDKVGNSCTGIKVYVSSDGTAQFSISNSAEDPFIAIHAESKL
# Method: 3.3. Anti-diabetic activity […]
# tetrahydrate in 8.0 mL of 2 M NaOH and 20 mL of 96 mM of DNSA solution). The […]
# as §1, §2, §3, §4, §5, §6
# activity. […] The IC50 of each tested sample was calculated by plotting a curve using a series of sample concentrations against the percent of α-glucosidase inhibition. […]
# as §7
# α-glucosidase, sequence (P53341 whole entry): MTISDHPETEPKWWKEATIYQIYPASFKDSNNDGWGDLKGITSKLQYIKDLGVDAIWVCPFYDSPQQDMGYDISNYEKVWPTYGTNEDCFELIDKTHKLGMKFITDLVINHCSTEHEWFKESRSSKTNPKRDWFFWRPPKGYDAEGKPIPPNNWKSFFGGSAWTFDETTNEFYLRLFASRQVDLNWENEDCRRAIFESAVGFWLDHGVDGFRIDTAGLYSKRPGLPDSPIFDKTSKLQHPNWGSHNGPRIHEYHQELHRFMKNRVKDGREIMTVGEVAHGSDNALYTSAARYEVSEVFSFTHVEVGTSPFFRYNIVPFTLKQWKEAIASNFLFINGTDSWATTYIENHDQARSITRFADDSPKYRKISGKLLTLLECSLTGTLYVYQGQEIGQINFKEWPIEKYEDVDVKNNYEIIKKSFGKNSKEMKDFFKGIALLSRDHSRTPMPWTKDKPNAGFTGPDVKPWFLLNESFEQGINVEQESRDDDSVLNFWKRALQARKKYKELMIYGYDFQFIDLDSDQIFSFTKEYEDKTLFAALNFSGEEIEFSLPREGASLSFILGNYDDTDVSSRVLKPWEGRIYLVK
compound,measurement,setting,value
C[C@H]1O[C@H](O[C@H]2[C@H](O)[C@@H](O)[C@@H](O[C@H]3[C@H](O)[C@@H](O)C(O)O[C@@H]3CO)O[C@@H]2CO)[C@H](O)[C@@H](O)[C@@H]1N[C@H]1C=C(CO)[C@@H](O)[C@H](O)[C@H]1O (some centres unmarked) [Acarbose],α-Glucosidase Inhib. (%),α-glucosidase,44.71 ± 0.10 Acarbose %
same,α-Amylase Inhib. (%),α-amylase,54.96 ± 0.10 Acarbose %
